In ChEMBL document CHEMBL1147725, “Identification and biological characterization of 6-aryl-7-isopropylquinazolinones as novel TRPV1 antagonists that are effective in models of chronic pain” (J Med Chem, 2006):

Experiments:
[1] = molecular target: T1, Transient receptor potential cation channel subfamily V member 1 (Homo sapiens, UniProt Q8NER1); assay: Inhibition of calcium influx evoked by capsaicin in human TRPV1 expressing cells by fluorescence assay; format: functional
[2] = molecular target: T1, Transient receptor potential cation channel subfamily V member 1; assay: Inhibition of low pH activation of human TRPV1; format: functional
[3] = molecular target: T2, Transient receptor potential cation channel subfamily V member 1 (Rattus norvegicus, UniProt O35433); assay: Inhibition of low pH activation of rat TRPV1; format: functional
[4] = molecular target: T2, Transient receptor potential cation channel subfamily V member 1; assay: Inhibition of calcium influx evoked by capsaicin in rat TRPV1 expressing cells by fluorescence assay; format: functional, cell-based

T1 sequence (Q8NER1 whole entry): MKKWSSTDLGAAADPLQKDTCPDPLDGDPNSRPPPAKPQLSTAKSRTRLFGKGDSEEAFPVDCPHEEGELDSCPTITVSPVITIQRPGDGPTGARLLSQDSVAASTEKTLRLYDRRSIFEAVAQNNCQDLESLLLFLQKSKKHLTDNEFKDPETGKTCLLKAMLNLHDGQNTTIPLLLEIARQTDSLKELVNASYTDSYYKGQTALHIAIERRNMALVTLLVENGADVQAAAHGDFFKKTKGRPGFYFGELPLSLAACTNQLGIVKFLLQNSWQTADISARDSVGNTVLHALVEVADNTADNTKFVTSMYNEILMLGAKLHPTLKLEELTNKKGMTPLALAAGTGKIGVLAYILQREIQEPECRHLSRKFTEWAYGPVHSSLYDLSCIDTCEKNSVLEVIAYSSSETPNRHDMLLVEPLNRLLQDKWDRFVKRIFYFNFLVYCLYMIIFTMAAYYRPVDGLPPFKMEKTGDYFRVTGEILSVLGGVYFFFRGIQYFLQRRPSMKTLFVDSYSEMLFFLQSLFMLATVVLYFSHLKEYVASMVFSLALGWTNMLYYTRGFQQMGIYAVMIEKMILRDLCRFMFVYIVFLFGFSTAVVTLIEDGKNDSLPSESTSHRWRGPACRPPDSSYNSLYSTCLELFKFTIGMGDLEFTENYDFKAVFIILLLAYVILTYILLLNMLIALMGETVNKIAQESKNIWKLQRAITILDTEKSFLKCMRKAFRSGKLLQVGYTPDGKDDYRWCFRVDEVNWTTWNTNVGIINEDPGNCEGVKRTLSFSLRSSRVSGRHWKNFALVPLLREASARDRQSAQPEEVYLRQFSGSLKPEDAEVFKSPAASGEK
T2 sequence (O35433 whole entry): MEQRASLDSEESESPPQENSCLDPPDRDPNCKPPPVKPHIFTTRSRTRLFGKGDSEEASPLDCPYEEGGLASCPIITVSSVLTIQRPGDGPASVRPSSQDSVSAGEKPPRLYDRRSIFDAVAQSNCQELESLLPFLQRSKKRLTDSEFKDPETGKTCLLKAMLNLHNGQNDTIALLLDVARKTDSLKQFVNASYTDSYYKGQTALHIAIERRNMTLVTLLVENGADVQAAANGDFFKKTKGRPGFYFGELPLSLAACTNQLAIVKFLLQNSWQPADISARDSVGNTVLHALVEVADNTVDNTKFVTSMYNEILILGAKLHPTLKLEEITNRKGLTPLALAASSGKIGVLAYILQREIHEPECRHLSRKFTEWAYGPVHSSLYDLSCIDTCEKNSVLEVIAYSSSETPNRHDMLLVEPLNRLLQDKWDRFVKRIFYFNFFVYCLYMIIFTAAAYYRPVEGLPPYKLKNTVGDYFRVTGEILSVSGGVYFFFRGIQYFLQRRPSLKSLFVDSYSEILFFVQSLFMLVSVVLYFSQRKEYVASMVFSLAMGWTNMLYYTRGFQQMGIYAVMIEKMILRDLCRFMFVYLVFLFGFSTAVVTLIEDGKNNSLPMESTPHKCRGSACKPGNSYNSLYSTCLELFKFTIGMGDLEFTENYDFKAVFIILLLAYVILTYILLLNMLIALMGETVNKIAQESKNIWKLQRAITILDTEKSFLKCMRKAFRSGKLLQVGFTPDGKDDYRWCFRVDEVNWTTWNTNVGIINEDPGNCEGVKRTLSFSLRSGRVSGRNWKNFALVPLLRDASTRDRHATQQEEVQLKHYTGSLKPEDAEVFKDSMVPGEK

| SMILES | IC50 [1] [nM] | also measured |
| --- | --- | --- |
| CC(C)c1cc2nc(N)[nH]c(=O)c2cc1-c1ccc(Cl)cc1 | 133 |  |
| CCOc1cc(-c2cc3c(=O)[nH]c(C)nc3cc2C(C)C)ccc1OC | 286 |  |
| Cc1nc(O)c2cc(-c3ccc(Cl)c(OCC(=O)O)c3)c(C(C)C)cc2n1 | > 1000 |  |
| Cc1nc(O)c2cc(-c3ccc(Cl)c(OCCO)c3)c(C(C)C)cc2n1 | 557 |  |
| CC(C)(C)c1nc2[nH]c(=S)[nH]c(=O)c2cc1-c1ccccc1 | 100 | IC50 [2]: 49 nM; IC50 [3]: 25 nM; IC50 [4]: 90 nM |
| CCc1nc2cc(C(C)C)c(-c3ccc(Cl)cc3)cc2c(=O)[nH]1 | > 1000 |  |
| CCCCOc1cc(-c2cc3c(=O)[nH]c(C)nc3cc2C(C)C)ccc1Cl | 82 |  |
| Cc1nc2cc(C(C)C)c(-c3ccc(Cl)c(OCCN(C)C)c3)cc2c(=O)[nH]1 | 487 |  |
| COc1cc(-c2cc3c(=O)[nH]c(C)nc3cc2C(C)C)ccc1Cl | 14 |  |
| Cc1nc(O)c2cc(-c3ccc4c(c3)OCO4)c(C(C)C)cc2n1 | 31 |  |
| Cc1nc(O)c2cc(-c3ccc(C)c(Cl)c3)c(C(C)C)cc2n1 | 42 |  |
| COCCOc1cc(-c2cc3c(=O)[nH]c(C)nc3cc2C(C)C)ccc1Cl | 216 |  |
